Reference: patent publication US8841462B2, “Bicyclic heterocycles as MEK kinase inhibitors” (priority 2008, dated 2014)

Tests used:
[1] = tested on: phospho-ERK in HCT116 human colorectal carcinoma; assay: Phospho-ERK cell-based assay, HCT116; conditions: HCT-116, HCT116, 2 h or 24 h exposure, p-ERK signal normalised to PI, read-out: EC50 in the phospho-ERK cell-based assay, HCT116 cell line
Experimental: (§1) Compounds are tested in a cell-based phospho-ERK ELISA using the following cell lines:
(§2) HCT116 human colorectal carcinoma (ATCC)
(§3) Both cell lines are maintained in DMEM/F12 (1:1) media (Gibco) supplemented with 10% FCS at 37° C. in a 5% CO2 humidified incubator.
(§4) Cells are seeded in 96-well plates at 2,000 cells/well and after 24 h they are exposed to different concentrations of compounds in 0.83% DMSO. Cells are grown for a further 2 h or 24 h, fixed with formaldehyde (2% final) and permeabilised with methanol. Following blocking with TBST-3% BSA, fixed cells are incubated with primary antibody (anti-phospho ERK from rabbit) over-night at 4° C. Cells are incubated with Propidium Iodide (DNA fluorescent dye) and detection of cellular p-ERK is performed using an anti-rabbit secondary antibody conjugated to the fluorescent Alexa Fluor 488 dye (Molecular probes). The fluorescence is analysed using the Acumen Explorer (TTP Labtech), a laser-scanning microplate cytometer, and the Alexa Fluor 488 signal is normalised to the PI signal (proportional to cell number).
(§5) The EC50 is defined as the concentration at which a given compound achieves a signal half way between the baseline and the maximum response. EC50 values are calculated using the XLfit software package (version 2.0.5).

[2] = tested on: A375 human malignant melanoma; assay: Cell proliferation assay, A375; assay type: cell-based; conditions: A-375, A375, 72h exposure, CellTiter-Glo, read-out: EC50 in the cell proliferation assay, A375 cell line
Experimental: (§6) Compounds are tested in a cell proliferation assay using the following cell lines:
(§7) A375 human malignant melanoma (ATCC)
as §3
(§8) Cells are seeded in 96-well plates at 2,000 cells/well and after 24 hours they are exposed to different concentrations of compounds in 0.83% DMSO. Cells are grown for a further 72h, and an equal volume of CellTiter-Glo reagent (Promega) is added to each well. This lyses the cells and generates a luminescent signal proportional to the amount of ATP released (and therefore proportional to the number of cells in the well) that can be detected using a multi-well luminometer.
(§9) The EC50 is defined as the concentration at which a given compound achieves 50% inhibition of control. IC50 values are calculated using the XLfit software package (version 2.0.5).

[3] = tested on: HCT116 human colorectal carcinoma; assay: Cell proliferation assay, HCT116; assay type: cell-based; conditions: HCT-116, HCT116, 72h exposure, CellTiter-Glo, read-out: EC50 in the cell proliferation assay, HCT116 cell line
Experimental: as §6, §2, §3, §8, §9

[4] = tested on: phospho-ERK in A375 human malignant melanoma; assay: Phospho-ERK cell-based assay, A375; conditions: A-375, A375, 2 h or 24 h exposure, p-ERK signal normalised to PI, read-out: EC50 in the phospho-ERK cell-based assay, A375 cell line
Experimental: as §1, §7, §3, §4, §5

SMILES	EC50 [2]	EC50 [3]	EC50 [1]	EC50 [4]
CSc1ccc(Nc2c(C(=O)NOCCO)ccc3[nH]ncc23)c(F)c1 [Example 13, 4-(2-Fluoro-4-methylsulfanyl-phenylamino)-1H-indazole-5-carboxylic acid (2-hydroxy-ethoxy)-amide]	–	< 500 nM	< 100 nM	–
CCONC(=O)c1ccc2[nH]ncc2c1Nc1ccc(I)cc1F [Example 14, 4-(2-Fluoro-4-iodo-phenylamino)-1H-indazole-5-carboxylic acid ethoxy-amide]	< 100 nM	< 500 nM	< 100 nM	< 100 nM
O=C(NOCC1CC1)c1ccc2[nH]ncc2c1Nc1ccc(I)cc1F [Example 16, 4-(2-Fluoro-4-iodo-phenylamino)-1H-indazole-5-carboxylic acid cyclopropylmethoxy-amide]	–	–	< 100 nM	–
C[C@H](O)CONC(=O)c1cnc2[nH]ncc2c1Nc1ccc(I)cc1F [Example 7, 4-(2-Fluoro-4-iodophenylamino)-1H-pyrazolo[3,4-b]pyridine 5-carboxylic acid ((S)-2-hydroxypropoxy)-amide]	< 100 nM	< 500 nM	< 100 nM	< 100 nM
O=C(NOCCO)c1ccc2cnsc2c1Nc1ccc(I)cc1F [Example 26, 7-(2-Fluoro-4-iodo-phenylamino)-benzo[d]isothiazole-6-carboxylic acid (2-hydroxy-ethoxy)-amide]	–	–	< 100 nM	< 100 nM
O=C(NOCCO)c1cnc2[nH]ncc2c1Nc1ccc(I)cc1F [Example 6, 4-(2-Fluoro-4-iodophenylamino)-1H-pyrazolo[3,4-b]pyridine 5-carboxylic acid (2-hydroxyethoxy)-amide]	< 100 nM	< 500 nM	< 100 nM	< 100 nM
O=C(NOCCO)c1ccc2[nH]ncc2c1Nc1ccc(Br)cc1F [Example 10, 4-(4-Bromo-2-fluoro-phenylamino)-1H-indazole-5-carboxylic acid (2-hydroxy-ethoxy)-amide]	< 100 nM	< 500 nM	< 100 nM	< 100 nM
O=C(NOCCO)c1ccc2sncc2c1Nc1ccc(I)cc1F [Example 12, 4-(2-Fluoro-4-iodo-phenylamino)-benzo[d]isothiazole-5-carboxylic acid (2-hydroxy-ethoxy)-amide]	< 100 nM	< 500 nM	< 100 nM	< 100 nM
CC(C)(CO)ONC(=O)c1cnc2[nH]ncc2c1Nc1ccc(I)cc1F [Example 8, 4-(2-Fluoro-4-iodophenylamino)-1H-pyrazolo[3,4-b]pyridine-5-carboxylic acid (2-hydroxy-1,1-dimethylethoxy)-amide]	< 100 nM	< 600 nM	< 100 nM	< 100 nM
C[C@H](O)CONC(=O)c1ccc2[nH]ncc2c1Nc1ccc(Br)cc1F [Example 11, 4-(4-Bromo-2-fluoro-phenylamino)-1H-indazole-5-carboxylic acid ((S)-2-hydroxy-propoxy)-amide]	< 100 nM	< 500 nM	< 100 nM	< 100 nM
O=C(NOC[C@H](O)CO)c1ccc2[nH]ncc2c1Nc1ccc(I)cc1F [Example 9, 4-(2-Fluoro-4-iodophenylamino)-1H-indazole-5-carboxylic acid ((R)-2,3-dihydroxy-propoxy)-amide]	< 100 nM	< 500 nM	< 100 nM	< 100 nM
O=C(NOCCO)c1ccc2[nH]ncc2c1Nc1ccc(I)cc1F [Example 5, 4-(2-Fluoro-4-iodo-phenylamino)-1H-indazole-5-carboxylic acid (2-hydroxy-ethoxy)-amide]	< 100 nM	< 500 nM	< 100 nM	–

More lines, main results first:

EC50 [2]	EC50 [3]	SMILES	EC50 [1]	EC50 [4]
< 100 nM	< 500 nM	CONC(=O)c1ccc2[nH]ncc2c1Nc1ccc(I)cc1F [Example 17, 4-(2-Fluoro-4-iodo-phenylamino)-1H-indazole-5-carboxylic acid methoxy-amide]	< 100 nM	< 100 nM
< 100 nM	< 500 nM	C[C@H](O)CONC(=O)c1ccc2sncc2c1Nc1ccc(I)cc1F [Example 20, 4-(2-Fluoro-4-iodo-phenylamino)-benzo[d]isothiazole-5-carboxylic acid ((S)-2-hydroxy-propoxy)-amide]	< 100 nM	< 100 nM
< 100 nM	< 500 nM	O=C(NOC[C@H](O)CO)c1ccc2cnsc2c1Nc1ccc(I)cc1F [Example 27, 7-(2-Fluoro-4-iodo-phenylamino)-benzo[d]isothiazole-6-carboxylic acid ((R)-2,3-dihydroxy-propoxy)amide]	< 100 nM	< 100 nM
< 100 nM	< 500 nM	CSc1ccc(Nc2c(C(=O)NOC[C@H](O)CO)ccc3cnsc23)c(F)c1 [Example 22, 7-(2-Fluoro-4-methylsulfanyl-phenylamino)-benzo[d]isothiazole-6-carboxylic acid ((R)-2,3-dihydroxy-propoxy)-amide]	< 100 nM	< 100 nM
< 100 nM	< 500 nM	O=C(NOCCO)c1ccc2cnsc2c1Nc1ccc(Br)cc1F [Example 25, 7-(4-Bromo-2-fluoro-phenylamino)-benzo[d]isothiazole-6-carboxylic acid (2-hydroxy-ethoxy)-amide]	< 100 nM	< 100 nM
< 100 nM	< 500 nM	O=C(NOC[C@H](O)CO)c1ccc2cnsc2c1Nc1ccc(Br)cc1F [Example 24, 7-(4-Bromo-2-fluoro-phenylamino)-benzo[d]isothiazole-6-carboxylic acid ((R)-2,3-dihydroxy-propoxy)-amide]	< 100 nM	< 100 nM
< 100 nM	–	O=C(NOC[C@H](O)CO)c1ccc2cnsc2c1Nc1ccc(C2CC2)cc1F [Example 23, 7-(4-Cyclopropyl-2-fluoro-phenylamino)-benzo[d]isothiazole-6-carboxylic acid ((R)-2,3-dihydroxy-propoxy)-amide]	–	< 100 nM
< 100 nM	< 500 nM	O=C(NOC[C@H](O)CO)c1ccc2sncc2c1Nc1ccc(I)cc1F [Example 21, 4-(2-Fluoro-4-iodo-phenylamino)-benzo[d]isothiazole-5-carboxylic acid ((R)-2,3-dihydroxy-propoxy)-amide]	< 100 nM	< 100 nM
